Results taken from patent US20030215462A1, “Use of UGT inhibitors to increase bioavailability” (priority 2001, published 2003).
One block for each compound: values may come before it.

Legend:
UGT1A9 = molecular target: T1, UGT1A9 (Homo sapiens, UniProt O60656); assay: Inhibition of raloxifene glucuronidation by recombinant UGT1A9 Supersomes; conditions: for % of control metabolism, raloxifene G1 / % of control metabolism, raloxifene G2: UGT1A9; for Inhibition of raloxifene glucuronidation, UGT1A9, first line per inhibitor (G1): first line (G1, metabolite not given); for Inhibition of raloxifene glucuronidation, UGT1A9, first line per inhibitor (G1) / Inhibition of raloxifene glucuronidation, UGT1A9, second line per inhibitor (G2): raloxifene 50 μM, 250 μg/ml Supersomes, 1 mM UDPGA, 15 min; for Inhibition of raloxifene glucuronidation, UGT1A9, second line per inhibitor (G2): second line (G2, metabolite not given)
T1 sequence (O60656 26-530): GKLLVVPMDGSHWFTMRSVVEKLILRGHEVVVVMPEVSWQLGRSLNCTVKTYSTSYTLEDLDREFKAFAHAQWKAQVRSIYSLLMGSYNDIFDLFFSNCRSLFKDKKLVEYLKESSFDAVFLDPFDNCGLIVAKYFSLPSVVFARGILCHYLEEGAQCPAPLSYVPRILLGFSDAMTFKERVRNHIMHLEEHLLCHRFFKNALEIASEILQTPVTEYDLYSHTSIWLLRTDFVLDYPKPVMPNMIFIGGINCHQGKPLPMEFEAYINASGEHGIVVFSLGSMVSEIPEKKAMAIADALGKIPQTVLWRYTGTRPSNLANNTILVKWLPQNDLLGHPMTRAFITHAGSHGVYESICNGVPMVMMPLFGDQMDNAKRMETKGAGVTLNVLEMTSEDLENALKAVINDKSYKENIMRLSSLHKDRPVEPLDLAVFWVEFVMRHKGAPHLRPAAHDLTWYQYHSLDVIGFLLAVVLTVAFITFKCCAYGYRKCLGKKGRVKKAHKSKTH

UGT1A3 = molecular target: T2, UGT1A3 (Homo sapiens, UniProt P35503); assay: Inhibition of raloxifene glucuronidation by recombinant UGT1A3 Supersomes; conditions: for Inhibition of raloxifene glucuronidation, G1, UGT1A3 / Inhibition of raloxifene glucuronidation, G2, UGT1A3: raloxifene 50 μM, 250 μg/ml Supersomes, 1 mM UDPGA, 15 min; for % of control metabolism, raloxifene G1 / % of control metabolism, raloxifene G2: UGT1A3
T2 sequence (P35503 29-534): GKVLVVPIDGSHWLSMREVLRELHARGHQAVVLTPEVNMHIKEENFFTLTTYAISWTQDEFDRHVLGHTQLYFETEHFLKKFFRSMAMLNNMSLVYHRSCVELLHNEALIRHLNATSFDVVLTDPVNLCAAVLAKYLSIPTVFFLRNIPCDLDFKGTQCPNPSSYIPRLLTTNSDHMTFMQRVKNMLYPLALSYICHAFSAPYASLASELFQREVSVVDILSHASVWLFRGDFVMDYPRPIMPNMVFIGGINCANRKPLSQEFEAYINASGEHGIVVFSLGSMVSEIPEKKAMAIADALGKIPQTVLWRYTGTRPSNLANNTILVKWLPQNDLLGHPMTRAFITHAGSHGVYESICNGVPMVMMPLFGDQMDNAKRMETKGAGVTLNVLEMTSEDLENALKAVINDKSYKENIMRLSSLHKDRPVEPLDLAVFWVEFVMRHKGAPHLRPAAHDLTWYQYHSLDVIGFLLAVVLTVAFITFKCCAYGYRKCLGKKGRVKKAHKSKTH
Protocol: (§1) Compounds were eluted using a binary solvent gradient system. Solvent A was water brought to pH 8 with NH4OH. Solvent B was methanol. Solvent flow rate was 1 ml/min and the column temperature was maintained at 50° C. Detection was at 280 nm. […] The system was then returned to the initial conditions and equilibrated for 3 min.

UGT1A1 = molecular target: T3, UGT1A1 (Homo sapiens, UniProt P22309); assay: Inhibition of raloxifene glucuronidation by recombinant UGT1A1 Supersomes; conditions: for Inhibition of raloxifene glucuronidation, G1, UGT1A1 / Inhibition of raloxifene glucuronidation, G2, UGT1A1: raloxifene 50 μM, 250 μg/ml Supersomes, 1 mM UDPGA, 15 min; for % of control metabolism, raloxifene G1 / % of control metabolism, raloxifene G2: UGT1A1
T3 sequence (P22309 26-533): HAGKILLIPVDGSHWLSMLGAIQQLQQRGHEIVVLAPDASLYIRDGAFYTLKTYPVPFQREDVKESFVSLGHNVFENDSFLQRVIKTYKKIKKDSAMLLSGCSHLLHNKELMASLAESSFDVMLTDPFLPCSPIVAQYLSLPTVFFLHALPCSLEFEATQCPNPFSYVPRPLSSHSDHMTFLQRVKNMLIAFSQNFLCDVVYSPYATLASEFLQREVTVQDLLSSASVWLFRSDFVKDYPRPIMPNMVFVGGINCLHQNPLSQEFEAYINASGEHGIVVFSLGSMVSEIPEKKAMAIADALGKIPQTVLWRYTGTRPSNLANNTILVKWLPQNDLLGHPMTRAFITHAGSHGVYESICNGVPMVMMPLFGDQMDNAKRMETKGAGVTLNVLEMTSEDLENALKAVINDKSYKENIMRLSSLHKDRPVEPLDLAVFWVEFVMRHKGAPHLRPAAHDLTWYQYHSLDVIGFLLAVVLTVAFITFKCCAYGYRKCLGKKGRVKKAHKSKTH
Protocol: as §1

[1] = test system: T4, UGT enzymes of human liver microsomes; assay: Kinetic and Ki studies of inhibitors of 7-HFC glucuronidation in human liver microsomes; type: biochemical; conditions: 7-HFC 20-500 μM; for Km: read-out: Km of 7-HFC glucuronidation (fit of the experiment with this inhibitor)
T4 construct: percentage of control metabolism, 7-HFC glucuronidation; percentage of control metabolism, 7-HFC glucuronidation

[2] = test system: UGT enzymes of human liver microsomes; assay: Inhibition of raloxifene glucuronidation (G1, G2) in human liver microsomes; type: biochemical; conditions: for % of control metabolism (SD, n = 3), raloxifene glucuronide G1 / % of control metabolism (SD, n = 3), raloxifene glucuronide G2: human liver microsomes 250 μg/ml, 15 min
Source text: Compounds were eluted using a binary solvent gradient system. […] Solvent B was methanol. […] Detection was at 280 nm.

[3] = test system: UGT enzymes of pooled human jejunum microsomes; assay: Inhibition of estradiol (E2) glucuronidation in pooled human jejunum microsomes; type: biochemical; conditions: jejunum HJ61, E2 50 μM
Source text: Compounds were eluted using a binary solvent gradient system where solvent A was dilute phosphoric acid (pH 3) and solvent B was 80:20 acetonitrile-methanol. […] Detection was at 280 nm.

[4] = inhibitor column headed only "μM" (between 25 μM and 5 μM)
[5] = inhibitor 10 μM, raloxifene 50 μM
[6] = inhibitor 25 μM, raloxifene 50 μM
[7] = inhibitor 50 μM, raloxifene 50 μM
[8] = inhibitor 100 μM, raloxifene 50 μM
[9] = inhibitor 500 μM, raloxifene 50 μM
[10] = liver lot 032101, inhibitor 50 μM
[11] = liver lot 062101, inhibitor 50 μM
[12] = liver lot 083000, inhibitor 50 μM
[13] = raloxifene 50 μM, inhibitor 10 μM
[14] = raloxifene 50 μM, inhibitor 25 μM
[15] = raloxifene 50 μM, inhibitor 50 μM
[16] = raloxifene 50 μM, inhibitor 100 μM

Compound: O=C(O[C@@H]1Cc2c(O)cc(O)cc2O[C@@H]1c1cc(O)c(O)c(O)c1)c1cc(O)c(O)c(O)c1 [Epigallocatechin gallate]
% of control metabolism, raloxifene G1 (UGT1A9; inhibitor 25 μM): 58 (1) % | % of control metabolism, raloxifene G2 (UGT1A9; inhibitor 25 μM): 50 (1) % | % of control metabolism, raloxifene G1 (UGT1A9; inhibitor 50 μM): 33 (4) % | % of control metabolism, raloxifene G2 (UGT1A9; inhibitor 50 μM): 22 (2) % | Inhibition of raloxifene glucuronidation, UGT1A9, first line per inhibitor (G1) (UGT1A9; inhibitor 25 μM): 58 (1) | Inhibition of raloxifene glucuronidation, UGT1A9, first line per inhibitor (G1) (UGT1A9; inhibitor 50 μM): 33 (4) | Inhibition of raloxifene glucuronidation, UGT1A9, second line per inhibitor (G2) (UGT1A9; inhibitor 25 μM): 50 (1) | Inhibition of raloxifene glucuronidation, UGT1A9, second line per inhibitor (G2) (UGT1A9; inhibitor 50 μM): 22 (2) | Inhibition of raloxifene glucuronidation, G1, UGT1A3 (UGT1A3; inhibitor 25 μM): 69 (2) | Inhibition of raloxifene glucuronidation, G1, UGT1A3 (UGT1A3; inhibitor 50 μM): 26 (2) | Inhibition of raloxifene glucuronidation, G2, UGT1A3 (UGT1A3; inhibitor 25 μM): 64 (3) | Inhibition of raloxifene glucuronidation, G2, UGT1A3 (UGT1A3; inhibitor 50 μM): 25 (1) | % of control metabolism, raloxifene G1 (UGT1A3; inhibitor 25 μM): 69 (2) % | % of control metabolism, raloxifene G2 (UGT1A3; inhibitor 25 μM): 64 (3) % | % of control metabolism, raloxifene G1 (UGT1A3; inhibitor 50 μM): 26 (2) % | % of control metabolism, raloxifene G2 (UGT1A3; inhibitor 50 μM): 25 (1) % | Inhibition of raloxifene glucuronidation, G1, UGT1A1 (UGT1A1; inhibitor 25 μM): 44 (1) | Inhibition of raloxifene glucuronidation, G1, UGT1A1 (UGT1A1; inhibitor 50 μM): 21 (0) | Inhibition of raloxifene glucuronidation, G1, UGT1A1 (UGT1A1; [4]): 70 (1) | Inhibition of raloxifene glucuronidation, G2, UGT1A1 (UGT1A1; inhibitor 25 μM): 45 (1) | Inhibition of raloxifene glucuronidation, G2, UGT1A1 (UGT1A1; inhibitor 50 μM): 25 (1) | Inhibition of raloxifene glucuronidation, G2, UGT1A1 (UGT1A1; [4]): 74 (2) | % of control metabolism, raloxifene G1 (UGT1A1; inhibitor 25 μM): 44 (1) % | % of control metabolism, raloxifene G2 (UGT1A1; inhibitor 25 μM): 45 (1) % | % of control metabolism, raloxifene G1 (UGT1A1; inhibitor 50 μM): 21 (0) % | % of control metabolism, raloxifene G2 (UGT1A1; inhibitor 50 μM): 25 (1) % | Vmax of 7-HFC glucuronidation (fit of the experiment with this inhibitor) [1]: 54 ± 3 nmol/min/mg | Km [1]: 75 ± 7 µM | % of control metabolism (SD, n = 3), raloxifene glucuronide G1 [2, 5]: 85 (3) % | % of control metabolism (SD, n = 3), raloxifene glucuronide G1 [2, 6]: 56 (1) % | % of control metabolism (SD, n = 3), raloxifene glucuronide G1 [2, 7]: 46 (2) % | % of control metabolism (SD, n = 3), raloxifene glucuronide G1 [2, 8]: 22 (1) % | % of control metabolism (SD, n = 3), raloxifene glucuronide G1 [2, 9]: 0 (0) % | % of control metabolism (SD, n = 3), raloxifene glucuronide G2 [2, 5]: 82 (3) % | % of control metabolism (SD, n = 3), raloxifene glucuronide G2 [2, 6]: 63 (1) % | % of control metabolism (SD, n = 3), raloxifene glucuronide G2 [2, 7]: 50 (3) % | % of control metabolism (SD, n = 3), raloxifene glucuronide G2 [2, 8]: 27 (2) % | % of control metabolism (SD, n = 3), raloxifene glucuronide G2 [2, 9]: 0 (0) % | % of control metabolism, raloxifene G1 [2, 10]: 54 (2) % | % of control metabolism, raloxifene G2 [2, 10]: 50 (2) % | % of control metabolism, raloxifene G1 [2, 11]: 68 (2) % | % of control metabolism, raloxifene G2 [2, 11]: 41 (2) % | % of control metabolism, raloxifene G1 [2, 12]: 46 (2) % | % of control metabolism, raloxifene G2 [2, 12]: 50 (3) % | % of control metabolism, raloxifene G1 [2, 13]: 85 (3) % | % of control metabolism, raloxifene G2 [2, 13]: 82 (3) % | % of control metabolism, raloxifene G1 [2, 14]: 56 (1) % | % of control metabolism, raloxifene G2 [2, 14]: 63 (1) % | % of control metabolism, raloxifene G1 [2, 15]: 46 (2) % | % of control metabolism, raloxifene G2 [2, 15]: 50 (3) % | % of control metabolism, raloxifene G1 [2, 16]: 22 (1) % | % of control metabolism, raloxifene G2 [2, 16]: 27 (2) % | residual metabolism (% of control), E2-3-β-D-glucuronide ([3]; inhibitor 50 μM): 32 (0) % | residual metabolism (% of control), E2-17-β-D-glucuronide ([3]; inhibitor 50 μM): 41 (4) %

Vmax of 7-HFC glucuronidation (fit of the experiment with this inhibitor) [1]: 62 ± 4 nmol/min/mg | Km [1]: 92 ± 9 µM | % of control metabolism (SD, n = 3), raloxifene glucuronide G1 [2, 6]: 63 (3) % | % of control metabolism (SD, n = 3), raloxifene glucuronide G1 [2, 7]: 43 (1) % | % of control metabolism (SD, n = 3), raloxifene glucuronide G1 [2, 8]: 30 (4) % | % of control metabolism (SD, n = 3), raloxifene glucuronide G1 [2, 9]: 6 (1) % | % of control metabolism (SD, n = 3), raloxifene glucuronide G2 [2, 6]: 66 (1) % | % of control metabolism (SD, n = 3), raloxifene glucuronide G2 [2, 7]: 45 (2) % | % of control metabolism (SD, n = 3), raloxifene glucuronide G2 [2, 8]: 34 (1) % | % of control metabolism (SD, n = 3), raloxifene glucuronide G2 [2, 9]: 7 (1) % | % of control metabolism, raloxifene G1 [2, 10]: 52 (1) % | % of control metabolism, raloxifene G2 [2, 10]: 54 (0) % | % of control metabolism, raloxifene G1 [2, 11]: 67 (2) % | % of control metabolism, raloxifene G2 [2, 11]: 57 (2) % | % of control metabolism, raloxifene G1 [2, 12]: 43 (1) % | % of control metabolism, raloxifene G2 [2, 12]: 45 (2) % | % of control metabolism, raloxifene G1 [2, 14]: 63 (3) % | % of control metabolism, raloxifene G2 [2, 14]: 66 (1) % | % of control metabolism, raloxifene G1 [2, 15]: 43 (1) % | % of control metabolism, raloxifene G2 [2, 15]: 45 (2) % | % of control metabolism, raloxifene G1 [2, 16]: 30 (4) % | % of control metabolism, raloxifene G2 [2, 16]: 34 (1) % | residual metabolism (% of control), E2-3-β-D-glucuronide ([3]; inhibitor 100 μM): 62 (3), obs %
Compound: O=C(O)c1cc(-c2ccc(F)cc2F)ccc1O [Diflunisal, reference compound]
